Data published in ChEMBL document CHEMBL3885881, “DrugMatrix”.

Species: Rattus norvegicus
Test: DrugMatrix - Regimen: Daily Repeat
Format: toxicity, organism-based, Sprague-Dawley
Parameters: regimen Daily Repeat, gender Male, age 6-8 weeks
Conditions: in vivo, po, route oral GAVAGE, vehicle .5 % CMC; for ABSOLUTE BASOPHIL / ABSOLUTE EOSINOPHIL / ABSOLUTE LYMPHOCYTE / ABSOLUTE MONOCYTE / ABSOLUTE SEGMENTED NEUTROPHIL / BASOPHIL / EOSINOPHIL / ERYTHROCYTE COUNT / HEMATOCRIT / HEMOGLOBIN / LEUKOCYTE COUNT / LYMPHOCYTE / MEAN CORPUSCULAR HEMOGLOBIN / MEAN CORPUSCULAR HEMOGLOBIN CONCENTRATION / MEAN CORPUSCULAR VOLUME / MONOCYTE / NEUTROPHIL / NUCLEATED RED BLOOD CELLS / PLATELET COUNT: tissue Blood; for ALANINE AMINOTRANSFERASE / ALBUMIN / ALKALINE PHOSPHATASE / ASPARTATE AMINOTRANSFERASE / BLOOD UREA NITROGEN / CARBON DIOXIDE / CHLORIDE / CHOLESTEROL / CREATINE PHOSPHOKINASE / CREATININE / GLUCOSE / LACTATE DEHYDROGENASE / LIPASE / PHOSPHORUS / POTASSIUM / SODIUM / TOTAL BILIRUBIN / TOTAL PROTEIN / URIC ACID: tissue Plasma
[1] = 0 mg/kg, 72 h, dose level Control, time 3 day
[2] = 0 mg/kg, 120 h, dose level Control, time 5 day
[3] = 15 mg/kg, 72 h, dose level Low, time 3 day

CN1C(=O)CN=C(c2ccccc2)c2cc(Cl)ccc21 [DIAZEPAM]
ABSOLUTE BASOPHIL [1]: 0 CELLS/uL
ABSOLUTE EOSINOPHIL [1]: 0 CELLS/uL
ABSOLUTE LYMPHOCYTE [1]: 12269.67 CELLS/uL
ABSOLUTE MONOCYTE [1]: 160.33 CELLS/uL
ABSOLUTE SEGMENTED NEUTROPHIL [1]: 970 CELLS/uL
BASOPHIL [1]: 0%
EOSINOPHIL [1]: 0%
ERYTHROCYTE COUNT [1]: 5.76 x10E6/uL
HEMATOCRIT [1]: 36.57%
HEMOGLOBIN [1]: 14.22 G/DL
LEUKOCYTE COUNT [1]: 13.4 x10E3/uL
LYMPHOCYTE [1]: 91.67%
MEAN CORPUSCULAR HEMOGLOBIN [1]: 24.67 pg
MEAN CORPUSCULAR HEMOGLOBIN CONCENTRATION [1]: 38.85 G/DL
MEAN CORPUSCULAR VOLUME [1]: 63.52 fL
MONOCYTE [1]: 1.17%
NEUTROPHIL [1]: 7.17%
NUCLEATED RED BLOOD CELLS [1]: 0.33 /100WBC
PLATELET COUNT [1]: 1250.83 x10E3/uL
ALANINE AMINOTRANSFERASE [1]: 49.17 u/L
ALBUMIN [1]: 4.33 G/DL
ALKALINE PHOSPHATASE [1]: 378.5 u/L
ASPARTATE AMINOTRANSFERASE [1]: 82.17 u/L
BLOOD UREA NITROGEN [1]: 15 mg/dL
CARBON DIOXIDE [1]: 34.33 mmol/L
CHLORIDE [1]: 99.17 MEQ/L
CHOLESTEROL [1]: 71.17 mg/dL
CREATINE PHOSPHOKINASE [1]: 258.67 u/L
CREATININE [1]: 0.18 mg/dL
GLUCOSE [1]: 142.67 mg/dL
LACTATE DEHYDROGENASE [1]: 154.33 u/L
LIPASE [1]: 9 u/L
PHOSPHORUS [1]: 11.67 mg/dL
POTASSIUM [1]: 7.13 MEQ/L
SODIUM [1]: 142.22 MEQ/L
TOTAL BILIRUBIN [1]: 0.18 mg/dL
TOTAL PROTEIN [1]: 5.77 G/DL
URIC ACID [1]: 1.55 mg/dL
ABSOLUTE BASOPHIL [2]: 0 CELLS/uL
ABSOLUTE EOSINOPHIL [2]: 23.33 CELLS/uL
ABSOLUTE LYMPHOCYTE [2]: 14943.67 CELLS/uL
ABSOLUTE MONOCYTE [2]: 32 CELLS/uL
ABSOLUTE SEGMENTED NEUTROPHIL [2]: 1084.33 CELLS/uL
BASOPHIL [2]: 0%
EOSINOPHIL [2]: 0.17%
ERYTHROCYTE COUNT [2]: 5.71 x10E6/uL
HEMATOCRIT [2]: 35.28%
HEMOGLOBIN [2]: 14.27 G/DL
LEUKOCYTE COUNT [2]: 16.08 x10E3/uL
LYMPHOCYTE [2]: 93%
MEAN CORPUSCULAR HEMOGLOBIN [2]: 25.02 pg
MEAN CORPUSCULAR HEMOGLOBIN CONCENTRATION [2]: 40.43 G/DL
MEAN CORPUSCULAR VOLUME [2]: 61.82 fL
MONOCYTE [2]: 0.17%
NEUTROPHIL [2]: 6.67%
NUCLEATED RED BLOOD CELLS [2]: 0.33 /100WBC
PLATELET COUNT [2]: 1274 x10E3/uL
ALANINE AMINOTRANSFERASE [2]: 54.17 u/L
ALBUMIN [2]: 4.22 G/DL
ALKALINE PHOSPHATASE [2]: 373.17 u/L
ASPARTATE AMINOTRANSFERASE [2]: 81.83 u/L
BLOOD UREA NITROGEN [2]: 16.67 mg/dL
CARBON DIOXIDE [2]: 30.33 mmol/L
CHLORIDE [2]: 99 MEQ/L
CHOLESTEROL [2]: 71 mg/dL
CREATINE PHOSPHOKINASE [2]: 273.5 u/L
CREATININE [2]: 0.22 mg/dL
GLUCOSE [2]: 141.83 mg/dL
LACTATE DEHYDROGENASE [2]: 153.67 u/L
LIPASE [2]: 10.33 u/L
PHOSPHORUS [2]: 11.38 mg/dL
POTASSIUM [2]: 7.08 MEQ/L
SODIUM [2]: 142.75 MEQ/L
TOTAL BILIRUBIN [2]: 0.18 mg/dL
TOTAL PROTEIN [2]: 6.1 G/DL
URIC ACID [2]: 1.67 mg/dL
ABSOLUTE BASOPHIL [3]: 0 CELLS/uL
ABSOLUTE EOSINOPHIL [3]: 0 CELLS/uL
ABSOLUTE LYMPHOCYTE [3]: 12631.33 CELLS/uL
ABSOLUTE MONOCYTE [3]: 43.67 CELLS/uL
ABSOLUTE SEGMENTED NEUTROPHIL [3]: 1191.67 CELLS/uL
BASOPHIL [3]: 0%
EOSINOPHIL [3]: 0%
ERYTHROCYTE COUNT [3]: 5.07 x10E6/uL
HEMATOCRIT [3]: 32.77%
HEMOGLOBIN [3]: 13.23 G/DL
LEUKOCYTE COUNT [3]: 13.87 x10E3/uL
LYMPHOCYTE [3]: 91%
MEAN CORPUSCULAR HEMOGLOBIN [3]: 26.23 pg
MEAN CORPUSCULAR HEMOGLOBIN CONCENTRATION [3]: 40.4 G/DL
MEAN CORPUSCULAR VOLUME [3]: 64.77 fL
MONOCYTE [3]: 0.33%
NEUTROPHIL [3]: 8.67%
NUCLEATED RED BLOOD CELLS [3]: 0 /100WBC
PLATELET COUNT [3]: 1275.67 x10E3/uL
ALANINE AMINOTRANSFERASE [3]: 54 u/L
ALBUMIN [3]: 4.07 G/DL
ALKALINE PHOSPHATASE [3]: 332.67 u/L
ASPARTATE AMINOTRANSFERASE [3]: 79.33 u/L
BLOOD UREA NITROGEN [3]: 16.67 mg/dL
CARBON DIOXIDE [3]: 27 mmol/L
CHLORIDE [3]: 101.67 MEQ/L
CHOLESTEROL [3]: 72.67 mg/dL
CREATINE PHOSPHOKINASE [3]: 227.67 u/L
CREATININE [3]: 0.25 mg/dL
GLUCOSE [3]: 180 mg/dL
LACTATE DEHYDROGENASE [3]: 173.33 u/L
LIPASE [3]: 9 u/L
PHOSPHORUS [3]: 13.13 mg/dL
POTASSIUM [3]: 7.43 MEQ/L
SODIUM [3]: 143.37 MEQ/L
TOTAL BILIRUBIN [3]: 0.2 mg/dL
TOTAL PROTEIN [3]: 5.57 G/DL
URIC ACID [3]: 1.97 mg/dL
